Measurements as given in US20230250077A1, “SULFONYLBENZAMIDE DERIVATIVE AND CONJUGATE THEREOF, PREPARATION METHOD THEREFOR AND USE THEREOF” (Jiangsu Hengrui Pharmaceuticals Co., Ltd., priority 2020, published 2023).
“Also recorded” adds a separate entry of the source. Marks after values point to notes of the source that are not given here.

Columns and labels:
BCL-xL = target: T1, BCL-xL (Homo sapiens, UniProt Q07817); experiment: Binding activity for BCL-xL (HTRF, biotin-labeled BIM); settings: His-tagged BCL-xL
T1 construct: purchased R&D 894-BX-050
Experimental: In vitro BCL-xL-binding activity was tested by the following method.
Reagents used in this experiment: His-tagged BCL-xL protein (R&D, Cat #894-BX-050); biotin-labeled BIM protein (R&D, Cat #3526/1); binding buffer (cisbio, Cat #62DLBDDF); assay buffer (cisbio, Cat #62DB1FDG); MAb anti-6His-Eu cryptate (cisbio, Cat #61HI2KLA); and affinity streptomycin linked XL665 (cisbio, Cat #611SAXLA).
The in vitro binding assay described below can determine the binding activity of test compounds for BCL-xL.
The test compounds were dissolved in dimethyl sulfoxide and diluted to gradient concentrations as required for the experiment, and the compounds at various concentrations formulated in dimethyl sulfoxide were subjected to a 100-fold dilution with a binding buffer. BCL-xL was diluted to the corresponding concentration with a binding buffer, and added to a white 384-well plate at 4 μL/well. Then the diluted test compound was added to the white 384-well plate at 2 μL/well. The plate was incubated at 25° C. for 1 h after the mixture was uniformly mixed. Biotin-labeled BIM protein was diluted to the corresponding concentration with a binding buffer, and added to a white 384-well plate at 4 μL/well. The plate was incubated at 25° C. for 2 h after the mixture was uniformly mixed. The MAb anti-6His-Eu cryptate and the affinity streptomycin linked XL665 were each diluted to the corresponding concentration with an assay buffer, and added to a white 384-well plate at 5 μL/well. The plate was incubated at 25° C. for 2-4 h after the mixture was uniformly mixed. The signal values were read with the HTRF program in a microplate reader (BMG Labtech, model: PHERAstar FS).

SD rats = experiment: Toxicity test on SD rats by repeated intravenous administrations for 7 days; assay type: in vivo, rat; settings: 1 mg/kg intravenously qd
Experimental: This experiment was performed to evaluate the toxicity of compound 9 and AZD4320 to SD rats by repeated intravenous administrations for 7 days.
30 SD rats, weighing about 180-200 g and aged 6-7 weeks, half male and half female, purchased from Zhejiang Vital River Laboratory Animal Technology Co., Ltd., SPF grade. Animal certification number: 200917Aazz0619000298 and 20200917Aazz0619000104. Production license number: SCXK (Zhejiang) 2019-0001.
Housing conditions: SPF grade, animals were housed in plastic and transparent rat cages, 2-3 per cage. The room temperature was 20-26° C. and the relative humidity was 40%-70%. The illumination was controlled in a 12/12 light/dark cycle. The granulated feed for mice was freely taken in an unlimited amount.
The rats were randomly divided into the following 3 groups: a vehicle control group, a compound 9-1 mg/kg group and a compound AZD4320-1 mg/kg group, with 6 rats in each group, half male and half female.
Dosage of the test sample for the 7-day toxicity test in rats: 1 mg/kg (qd), for 7 consecutive days. Administration route: intravenously, dosing volume: 10 mL/kg, dosing frequency and dosing period: daily in the morning for 7 days.
Vehicle: 1.5% DMA+98.5% (10% HS-15), wherein DMA is N,N-dimethylacetamide (Shanghai Titan Scientific Co., Ltd., Cat #01013630); and HS-15 is polyethylene glycol stearate 15 (Solutol HS15) (Shanghai Xietai Chemical Co., Ltd., Cat #50253404).
Hitachi 7100 automatic biochemical analyzer
Siemens advia 2120i automatic blood cell analyzer
Sysmex ca1500 automatic coagulation analyzer
The detection results were input and statistically processed by Excel of the computer.
Clinical symptoms, food intake and general visual observation results of dissection were not statistically calculated, and indexes such as body weight, organ weight and clinical examination were counted by using T-test.
SD rats were intravenously administered with 1 mg/kg compound 9 or 1 mg/kg AZD4320 at 5 mL/kg for 7 repeated days.

[1] = Pharmacokinetic evaluation in mice (iv, LC/MS/MS plasma); assay type: in vivo; settings: intravenous administration
Experimental: The drug concentration in the plasma of the test animals (mice) at different time points after intravenous (iv) administration of compound 10 and AZD4320 was determined by an LC/MS/MS method. The pharmacokinetic behavior of the compounds of the present disclosure in mice was studied and their pharmacokinetic profile was valuated.
18 C57 mice, female, randomly divided into 2 groups, purchased from Zhejiang Vital River Laboratory Animal Technology Co., Ltd, animal production license number: SCXK (Shanghai) 2017-0005.
A certain amount of compound 10 was weighed, dissolved by adding 5% by volume of DMSO and 5% Tween 80 (Shanghai Titan Scientific Co., Ltd.), and then prepared into a 0.1 mg/mL clear solution by adding 90% normal saline. Compound AZD4320 was formulated as with compound 10. […]
(§1) The mice were intravenously administered with compound 10, and 0.1 mL of blood was collected before the administration and 5 min, 0.25 h, 0.5 h, 1.0 h, 2.0 h, 4.0 h, 8.0 h, 11.0 h and 24.0 h after the administration, put into an EDTA-K2 anticoagulation tube, centrifuged at 10,000 rpm for 1 min (4° C.). Plasma was separated within 1 hour, and stored at −20° C. for testing. The process from blood collection to centrifugation was performed under an ice bath.
as §1, with “compound AZD4320,” for “compound 10,”
The content of the test compounds at different concentrations in plasma of mice after the administration was determined: 10 μL of plasma of mice at each time point after the administration was mixed with 200 μL of methanol (containing an internal standard solution camptothecin (100 ng/mL)); the mixture was vortexed for 1 min, and centrifuged for 10 min (18,000 r/min), and 3 μL of supernatant was taken for LC/MS/MS analysis.

T1 sequence (Q07817 whole entry): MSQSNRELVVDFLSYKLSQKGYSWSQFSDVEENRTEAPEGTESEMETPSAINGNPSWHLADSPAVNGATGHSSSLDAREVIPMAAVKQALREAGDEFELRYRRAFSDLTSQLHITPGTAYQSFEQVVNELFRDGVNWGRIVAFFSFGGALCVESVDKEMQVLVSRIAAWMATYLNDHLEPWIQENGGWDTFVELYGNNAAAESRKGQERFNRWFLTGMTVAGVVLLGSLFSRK

O=C(NS(=O)(=O)c1ccc(N[C@@H](CSc2ccccc2)C[C@@H]2CCCN2CCO)c(S(=O)(=O)C(F)(F)F)c1)c1ccc(N2CCC([C@@H](O)c3ccccc3-c3ccc(Cl)cc3)CC2)cc1 [Example 2-9, 4-(4-((R)-(4′-chloro-[1,1′-biphenyl]-2-yl)(hydroxy)methyl)piperidin-1-yl)-N-((4-(((R)-1-((S)-1-(2-hydroxyethyl)pyrrolidin-2-yl)-3-(phenylthio)propan-2-yl)amino)-3-((trifluoromethyl)sulfonyl)phenyl)sulfonyl)benzamide]
Ki (BCL-xL): 0.07 nM
Clinical observation of the animals during treatment (SD rats): No significant abnormalities
PLT (10^9/L) (SD rats): 1,258.67* 10^9/L
Effect on platelets (in words) (SD rats; vs vehicle control, listed as compound 9, 1 mg/kg): slightly reduced but within the background normal range; also recorded: reduces platelets less than the positive control group

CN(CCO)CC[C@H](CSc1ccccc1)Nc1ccc(S(=O)(=O)NC(=O)c2ccc(N3CCC([C@@H](O)c4ccccc4-c4ccc(C(F)(F)F)cc4)CC3)cc2)cc1S(=O)(=O)C(F)(F)F [Example 2-10, 4-(4-((R)-hydroxy(4′-(trifluoromethyl)-[1,1′-biphenyl]-2-yl)methyl)piperidin-1-yl)-N-((4-(((R)-4-((2-hydroxyethyl)(methyl)amino)-1-(phenylthio)butan-2-yl)amino)-3-((trifluoromethyl)sulfonyl)phenyl)sulfonyl)benzamide]
Clearance CLz/F ([1]; C57 mice, female, dose 1 mg/kg (table)): 50.3 mL/min/kg
Clearance in mice (in words) ([1]; mice): cleared slowly
Elimination phase half-life compared with the positive control AZD 4320 (in words) ([1]; mice): longer elimination phase half-life than the positive control AZD 4320
AUC(0-t) ([1]; mouse, plasma, C57 mice, female, dose 1 mg/kg (table), read-out: Area under curve AUC0-t): 296 ng·h/mL
half-life ([1]; mouse, plasma, C57 mice, female, dose 1 mg/kg (table), read-out: Half-life T½ (converted)): 780 min
MRT inf ([1]; mouse, plasma, C57 mice, female, dose 1 mg/kg (table), read-out: Mean retention time MRT 0-∞): 7.3 h
concentration at 5 min ([1]; mouse, plasma, C57 mice, female, dose 1 mg/kg (table), read-out: Plasma Concentration C5 min): 608 ng/mL
Ki (BCL-xL): 0.07 nM
